The values below come from patent US20110263642A1, “METHODS FOR TREATMENT OF MULTIPLE SCLEROSIS” (FibroGen, Inc., priority 2008, published 2011).

Where two headings read alike, the source gives them in different places.

Test [1] concerns EAE animal model of chronic progressive multiple sclerosis. In words: Chronic progressive EAE induced by MOG35-55 and pertussis toxin in mice, neurological scoring to day 35. Type of test: in vivo, C57BL/6 mice. The source says:
A chronic progressive model of EAE is an accepted animal model of human chronic progressive multiple sclerosis (MS). In this model, induction of chronic progressive EAE occurs following injections of myelin oligodendrocyte glycoprotein (MOG). Approximately 8 to 14 days after injection of MOG, animals develop chronic progressive paralysis similar to that observed in humans with chronic progressive MS.
Female C57BL/6 mice (8-10 weeks old) were used in this study (Taconic Farm, CA). Compounds of the present invention were formulated in 0.5% carboxymethyl cellulose (CMC) with 0.1% Polysorbate 80 to achieve a final concentration of either 1.2 mg/ml or 4.0 mg/ml. FTY-720 was also formulated in 0.5% carboxymethyl cellulose (CMC) with 0.1% Polysorbate 80 to achieve a final concentration of 2.0 mg/ml.
Induction of chronic progressive EAE by injection with myelin oligodendrocyte glycoprotein (MOG) was performed as follows. Mice were injected subcutaneously with 200 μg of myelin oligodendrocyte glycoprotein (MOG35-55) peptide emulsion in both sides of their pectoral regions (50 μl each side). At 8 hours and 48 hr after immunization with MOG, animals were injected intraperitoneally with 400 ng of pertussis toxin (PT) in 100 μl of saline. Control mice received both injections with an equivalent volume of saline without MOG or PT.
[…] FTY-720 (10 mg/kg) was used in this study as a positive control and was administered daily from day 0 to day 35.
Neurological scoring was performed daily from day 7 to day 35 following MOG injection. Grading of disease severity (i.e., disease score) was based on the following observations performed by two different observers: 0=no abnormality; 1=distal weakness of the tail (limp tail); 2=limp tail and weakness of hind legs (mild paraparesis); 3=limp tail and complete paralysis of hind legs or paralysis in one of one front leg and one hind leg (moderate paraparesis); 4=limp tail, complete hind leg and partial front leg paralysis (moderate quadraparesis); 5=complete hind and front leg paralysis (moribund). Analysis of variance (ANOVA) was performed on data from the measured (neurological score) parameters. p value≦0.05 were considered significant.

For test [2], the system named is Oligodendrocytes (MO3.13 cells). In words: Ceramide-induced cell death of oligodendrocytes, Calcein AM viability. Type of test: cell-based. The following applies: compound 20 μM, non-ceramide control = 100. The text has this:
(See e.g., Craighead et al. (2000) Neurosci Lett. 278:125-8; Jana et al. (2007) J Neuroimmune Pharmacol. 2:184-93; Jana et al. (2009) J Neurol Sci. 278:5-15; Singh et al. (1998) J Biol. Chem. 273:20354-62.) In this model, addition of ceramide to cultured oligodendrocytes results in oxidative stress-induced cell death (i.e. apoptosis). The effect of compounds and methods of the present invention on the ability to improve oligodendrocyte viability following ceramide challenge was examined as follows. Oligodendrocytes (MO3.13 cells; Cedarlane Laboratories, Burlington, N.C.) were plated in 96-well culture dishes at a density of 4000 cells per well and cultured at 37° C., 10% CO2 in DMEM containing L-glutamine, sodium pyruvate, and 25 mM glucose (Mediatech Inc., Manassas, Va.) and supplemented with 10% FBS (Invitrogen Corporation, Carlsbad, Calif.). The next day, the plating media was removed and replaced with DMEM containing L-glutamine (Invitrogen Corporation, Carlsbad, Calif.) and supplemented with 5.5 mM glucose. Cells were then treated with vehicle (0.015% DMSO) or ceramide (Sigma-Aldrich, St. Louis, Mo.) plus vehicle (0.05% DMSO) or a compound of the invention (20 μM).
For cells treated longer than 3 days, half the media was removed after the third day of treatment and replaced with an equal volume of fresh treatment media containing vehicle (0.015% DMSO) or ceramide plus vehicle (0.05% DMSO) or a compound of the invention.
Cell viability was assessed 3, 4, and 5 days after treatment using the following protocol. Treatment media was removed from the cells and 100 ul of 1.67 uM Calcein AM reagent (Invitrogen Corporation, Carlsbad, Calif.) prepared in DMEM containing L-glutamine (Invitrogen Corporation, Carlsbad, Calif.) and supplemented with 5.5 mM glucose was added to each well. Cells were returned to 37° C. in a 10% CO2 incubator for approximately 30 minutes before assessing fluorescence (Ex 485 nm/Em 538 nm) using a microplate reader (Molecular Devices, Sunnyvale, Calif.). Images were taken of representative wells using a fluorescent microscope equipped with a camera (Nikon, Melville, N.Y.) and imaging software (Nikon, Melville, N.Y.).

The mark [3] stands for this setting: 72 h, ceramide 2.25 μM, read-out: % Viable at Day 3.
The mark [4] stands for this setting: 72 h, ceramide 2.75 μM, read-out: % Viable at Day 3.
Where [5] appears, read: 96 h, ceramide 2.25 μM, read-out: % Viable at Day 4.
Where [6] appears, read: 96 h, ceramide 2.75 μM, read-out: % Viable at Day 4.
[7] abbreviates: 120 h, ceramide 2.25 μM, read-out: % Viable at Day 5.
[8] abbreviates: 120 h, ceramide 2.75 μM, read-out: % Viable at Day 5.

Turning to `CCCCCCCCc1ccc(CCC(N)(CO)CO)cc1` [FTY-720, reference compound], the “development of EAE disease (positive control)” value in test [1] (10 mg/kg daily, day 0 to day 35) is given as “prevented the development of EAE disease”. For the same molecule, the “No. of Animals Showing No Disease Activity” value in test [1] (through day 35, FTY-720 (Table 3: 10 mg/kg/d, daily)) is given as 7/7.
For `O=C(O)CNC(=O)c1ncc2cc(Oc3ccccc3)ccc2c1O` [Compound F, [(4-Hydroxy-7-phenoxy-isoquinoline-3-carbonyl)-amino]-acetic acid], the viability at 20 µM in test [2] (setting [3]) is 85%; in test [2] (setting [4]), 72%; in test [2] (setting [5]) it was 66%; in test [2] (setting [6]), 53%; in test [2] (setting [7]) it was 62%; in test [2] (setting [8]), 51%.
Take `Cc1ccc(Oc2cccc3c(C#N)nc(C(=O)NCC(=O)O)c(O)c23)cc1` [Compound B, [(1-Cyano-4-hydroxy-5-p-tolyloxy-isoquinoline-3-carbonyl)-amino]-acetic acid]: the viability at 20 µM in test [2] (setting [3]) is 76%; in test [2] (setting [5]) it was 54%; in test [2] (setting [7]), 16%.
As for `N#Cc1nc(C(=O)NCC(=O)O)c(O)c2ccn(Cc3ccccc3F)c12` [Compound O, {[7-Cyano-1-(2-fluoro-benzyl)-4-hydroxy-1H-pyrrolo[2,3-c]pyridine-5-carbonyl]-amino}-acetic acid], the viability at 20 µM in test [2] (setting [4]) is 74%; in test [2] (setting [6]), 53%; in test [2] (setting [8]) it was 52%.
For `COc1ccc(Cn2c(Cl)c(Cl)c3c(O)c(C(=O)NCC(=O)O)nc(C#N)c32)cc1` [Compound Q, {[2,3-Dichloro-7-cyano-4-hydroxy-1-(4-methoxy-benzyl)-1H-pyrrolo[2,3-c]pyridine-5-carbonyl]-amino}-acetic acid], in that order: 70%, 59% and 50%.
For `COc1cccc(Oc2cccc3c(O)c(C(=O)NCC(=O)O)ncc23)c1` [Compound E, {[4-Hydroxy-8-(3-methoxy-phenoxy)-isoquinoline-3-carbonyl]-amino}-acetic acid], in that order: 84%, 74% and 71%.
As for `N#Cc1nc(C(=O)NCC(=O)O)c(O)c2ccn(Cc3ccc(-c4ccccc4)cc3)c12` [Compound P, [(1-Biphenyl-4-ylmethyl-7-cyano-4-hydroxy-1H-pyrrolo[2,3-c]pyridine-5-carbonyl)-amino]-acetic acid], the viability at 20 µM was 79% in test [2] (setting [3]), 80% in test [2] (setting [5]) and 77% in test [2] (setting [7]).
On to `O=C(O)CNC(=O)c1c(O)c2cc(Cl)cn2n(Cc2ccc(Cl)cc2)c1=O` [Compound I, {[6-Chloro-1-(4-chloro-benzyl)-4-hydroxy-2-oxo-1,2-dihydro-pyrrolo[1,2-b]pyridazine-3-carbonyl]-amino}-acetic acid], for which the viability at 20 µM is 76% in test [2] (setting [4]), 66% in test [2] (setting [6]) and 64% in test [2] (setting [8]).
Turning to `Cc1ccc(Oc2cccc3c(O)c(C(=O)NCC(=O)O)nc(-c4cccnc4)c23)cc1` [Compound C, [(4-Hydroxy-1-pyridin-3-yl-8-p-tolyloxy-isoquinoline-3-carbonyl)-amino]-acetic acid], the viability at 20 µM in test [2] (setting [3]) is 61%; in test [2] (setting [5]) it was 51%; in test [2] (setting [7]), 16%.
For the molecule `C[C@H](NC(=O)c1c(O)c2cc(Cl)cn2n(Cc2ccc(C(F)(F)F)cc2)c1=O)C(=O)O` [Compound H, (S)-2-{[6-Chloro-4-hydroxy-2-oxo-1-(4-trifluoromethyl-benzyl)-1,2-dihydro-pyrrolo[1,2-b]pyridazine-3-carbonyl]-amino}-propionic acid], the viability at 20 µM in test [2] (setting [4]) was 73%; in test [2] (setting [6]) it was 74%; in test [2] (setting [8]) it was 77%.
On the same counts, the results for `O=C(O)CNC(=O)c1c(O)c2ccc(-c3ccc(Oc4ccccc4)cc3)cc2oc1=O` [Compound J, {[4-Hydroxy-2-oxo-7-(4-phenoxy-phenyl)-2H-chromene-3-carbonyl]-amino}-acetic acid] are 70%, 36% and 22%.
On the same counts, the results for `COc1ccc(-c2ccc3c(O)c(C(=O)NCC(=O)O)c(=O)sc3c2)cc1` [Compound L, {[4-Hydroxy-7-(4-methoxy-phenyl)-2-oxo-2H-thiochromene-3-carbonyl]-amino}-acetic acid] are 75%, 59% and 64%.
As for `O=C(O)CNC(=O)c1c(O)c2cccn2n(Cc2ccc(C(F)(F)F)cc2)c1=O` [Compound G, {[4-Hydroxy-2-oxo-1-(4-trifluoromethyl-benzyl)-1,2-dihydro-pyrrolo[1,2-b]pyridazine-3-carbonyl]-amino}-acetic acid], the viability at 20 µM in test [2] (setting [3]) was 94%; in test [2] (setting [5]), 86%; in test [2] (setting [7]), 80%.
For the molecule `CC1(C)C(=O)C(C(=O)NCC(=O)O)=C(O)c2cc(Cl)ccc21` [Compound N, [(7-Chloro-1-hydroxy-4,4-dimethyl-3-oxo-3,4-dihydro-naphthalene-2-carbonyl)-amino]-acetic acid], the viability at 20 µM was 82% in test [2] (setting [4]), 67% in test [2] (setting [6]) and 67% in test [2] (setting [8]).
Take `CCCCOc1ccc2c(O)c(C(=O)NCC(=O)O)c(=O)sc2c1` [Compound M, [(7-Butoxy-4-hydroxy-2-oxo-2H-thiochromene-3-carbonyl)-amino]-acetic acid]: the viability at 20 µM in test [2] (setting [4]) is 74%; in test [2] (setting [6]), 57%; in test [2] (setting [8]), 59%.
On the same counts, the results for `CCCCCCOc1ccc2oc(=O)c(C(=O)NCC(=O)O)c(O)c2c1` [Compound K, [(6-Hexyloxy-4-hydroxy-2-oxo-2H-chromene-3-carbonyl)-amino]-acetic acid] are 72%, 43% and 56%.
For `COc1cc(F)cc(Oc2ccc3c(O)c(C(=O)NCC(=O)O)ncc3c2)c1` [Compound D, {[7-(3-Fluoro-5-methoxy-phenoxy)-4-hydroxy-isoquinoline-3-carbonyl]-amino}-acetic acid], in that order: 79%, 74% and 61%.
